Assay results as given in patent US20080226719A1, “Combination of Rosiglitazone and Donepezil for Improvement of Cognitive Function” (priority 2005, published 2008).

Assays:
Type in all cases: in vivo, human
Alzheimer's patients [1] = test: CIBIC+ in patients with mild to moderate AD, 24 week placebo-controlled study (Example 2); details: 24 weeks
Description: Analysis for the full intent to treat (ITT) population was performed on 511 subjects who were randomly allocated into one of four specific treatment regimes. Genotyping analysis was performed on 63% (323/511) of the ITT population.
Patient population included Caucasian males and females between 50-85 years of age who had been diagnosed with mild to moderate AD, were not receiving any medications which could adversely prejudice the study (e.g. PPAR-gamma agonists or conventional AD medicaments) or had any other potentially prejudicial ailments (e.g. diabetes or major psychiatric disorders).
(§1) Patients received either placebo or one of three dosage levels of extended release rosiglitazone provided once daily (2 mg, 4 mg and 8 mg tablets as described in Example 1). Patients were examined using the cognitive Alzheimer's Disease Assessment Scale (ADAS-cog; for further information see Rosen W G et al. Am. J. Psychiatry. 1984 141:1356-1364) and the Clinician's Interview-Based Impression of Change with caregiver information (CIBIC+; for further information see Knopman D S et al. Neurology 1994 44: 2315-2321); and secondary assessments were performed using: the Disability Assessment for Dementia (DAD, for further information see Gelinas L et al. Am J Occup Ther 1999 53: 471-81) and the Neuropsychiatric Inventory test (NPI, for further information see Cummings et al (1994) Neurology 44, 2308-2314) at the start of the study (baseline) and during the course of the study (after 8, 16 and 24 weeks of treatment).
APOE genotype was determined using the TaqMan PCR-based method of McLeod et al 2001 infra.
All statistics reflect last observed assessment carried forward (LOCF) measurements.
Higher CIBIC+ scores indicate a greater level of decline with scores below 4 denoting clinical improvement and scores above 4 denoting clinical decline.

Alzheimer's patients [2] = test: Neuropsychiatric Inventory (NPI), Example 2 study; details: week 24
Description: as §1
Similar results were identified using the Neuropsychiatric Inventory (NPI) test (Cummings et al (1994) Neurology 44, 2308-2314). A prospectively defined test for interaction between APOE4 carriage status and NPI scores at week 24 was significant ([…]).

Alzheimer's patients [3] = test: Disability Assessment for Dementia (DAD), Example 2 study; details: week 24
Description: as §1
Similar results were identified using the Disability Assessment for Dementia (DAD) test (Gelinas L et al. Am J Occup Ther 1999 53: 471-81). A prospectively defined test for interaction between APOE4 carriage status and DAD scores at week 24 was significant (P=0.006).

[4] = Table 13, PGx ITT population, 0 APOE4 copies, 4 mg
[5] = Table 13, PGx ITT population, 0 APOE4 copies, 8 mg
[6] = Table 13, PGx ITT population, 1 APOE4 copy, 2 mg
[7] = Table 13, PGx ITT population, 1 APOE4 copy, 4 mg
[8] = Table 13, PGx ITT population, 1 APOE4 copy, 8 mg
[9] = Table 13, PGx ITT population, 2 APOE4 copies, 2 mg
[10] = Table 13, PGx ITT population, 2 APOE4 copies, 4 mg
[11] = Table 13, PGx ITT population, 2 APOE4 copies, 8 mg

CN(CCOc1ccc(CC2SC(=O)NC2=O)cc1)c1ccccn1 (stereo not drawn) [Rosi, 5-[4-[2-(N-methyl-N-(2-pyridyl)amino)ethoxy]benzyl]thiazolidine-2,4-dione]
model adjusted CIBIC+ LSMean (SE) (Alzheimer's patients [1]; Table 13, PGx ITT population, 0 APOE4 copies, 2 mg): 3.47 (0.18) | CIBIC+ Treatment Difference (90% confidence limits) Rosi − Placebo (Alzheimer's patients [1]; [4]): −0.19 (−0.60, 0.22) | model adjusted CIBIC+ LSMean (SE) (Alzheimer's patients [1]; [4]): 3.76 (0.18) | CIBIC+ Treatment Difference (90% confidence limits) Rosi − Placebo (Alzheimer's patients [1]; [5]): −0.19 (−0.61, 0.22) | model adjusted CIBIC+ LSMean (SE) (Alzheimer's patients [1]; [5]): 3.76 (0.18) | CIBIC+ Treatment Difference (90% confidence limits) Rosi − Placebo (Alzheimer's patients [1]; [6]): 0.59 (0.08, 1.11) | model adjusted CIBIC+ LSMean (SE) (Alzheimer's patients [1]; [6]): 4.47 (0.23) | CIBIC+ Treatment Difference (90% confidence limits) Rosi − Placebo (Alzheimer's patients [1]; [7]): 0.23 (−0.28, 0.74) | model adjusted CIBIC+ LSMean (SE) (Alzheimer's patients [1]; [7]): 4.11 (0.23) | CIBIC+ Treatment Difference (90% confidence limits) Rosi − Placebo (Alzheimer's patients [1]; [8]): −0.20 (−0.73, 0.34) | model adjusted CIBIC+ LSMean (SE) (Alzheimer's patients [1]; [8]): 3.68 (0.25) | CIBIC+ Treatment Difference (90% confidence limits) Rosi − Placebo (Alzheimer's patients [1]; [9]): −0.92 (−2.20, 0.37) | model adjusted CIBIC+ LSMean (SE) (Alzheimer's patients [1]; [9]): 3.42 (0.58) | CIBIC+ Treatment Difference (90% confidence limits) Rosi − Placebo (Alzheimer's patients [1]; [10]): −0.39 (−1.55, 0.77) | model adjusted CIBIC+ LSMean (SE) (Alzheimer's patients [1]; [10]): 3.95 (0.47) | CIBIC+ Treatment Difference (90% confidence limits) Rosi − Placebo (Alzheimer's patients [1]; [11]): −0.07 (−1.08, 0.95) | model adjusted CIBIC+ LSMean (SE) (Alzheimer's patients [1]; [11]): 4.27 (0.34) | model adjusted CIBIC+ LSMean (SE) (Alzheimer's patients [1]; Table 13A updated analysis with additional subjects, 0 APOE4 copies, 2 mg): 3.51 (0.17) | model adjusted CIBIC+ LSMean (SE) (Alzheimer's patients [1]; Table 13A updated analysis with additional subjects, 0 APOE4 copies, 4 mg): 3.75 (0.17) | model adjusted CIBIC+ LSMean (SE) (Alzheimer's patients [1]; Table 13A updated analysis with additional subjects, 0 APOE4 copies, 8 mg): 3.75 (0.18) | model adjusted CIBIC+ LSMean (SE) (Alzheimer's patients [1]; Table 13A updated analysis with additional subjects, 1 APOE4 copy, 2 mg): 4.32 (0.21) | model adjusted CIBIC+ LSMean (SE) (Alzheimer's patients [1]; Table 13A updated analysis with additional subjects, 1 APOE4 copy, 4 mg): 3.97 (0.22) | model adjusted CIBIC+ LSMean (SE) (Alzheimer's patients [1]; Table 13A updated analysis with additional subjects, 1 APOE4 copy, 8 mg): 3.70 (0.24) | model adjusted CIBIC+ LSMean (SE) (Alzheimer's patients [1]; Table 13A updated analysis with additional subjects, 2 APOE4 copies, 2 mg): 3.46 (0.57) | model adjusted CIBIC+ LSMean (SE) (Alzheimer's patients [1]; Table 13A updated analysis with additional subjects, 2 APOE4 copies, 4 mg): 3.93 (0.47) | model adjusted CIBIC+ LSMean (SE) (Alzheimer's patients [1]; Table 13A updated analysis with additional subjects, 2 APOE4 copies, 8 mg): 4.29 (0.33) | CIBIC+ Treatment Difference (90% confidence limits) Rosi − Placebo (Alzheimer's patients [1]; Table 13A updated analysis, 0 APOE4 copies, 2 mg): −0.46 (−0.85, −0.07) | CIBIC+ Treatment Difference (90% confidence limits) Rosi − Placebo (Alzheimer's patients [1]; Table 13A updated analysis, 0 APOE4 copies, 4 mg): −0.22 (−0.62, 0.18) | CIBIC+ Treatment Difference (90% confidence limits) Rosi − Placebo (Alzheimer's patients [1]; Table 13A updated analysis, 0 APOE4 copies, 8 mg): −0.22 (−0.62, 0.19) | CIBIC+ Treatment Difference (90% confidence limits) Rosi − Placebo (Alzheimer's patients [1]; Table 13A updated analysis, 1 APOE4 copy, 2 mg): 0.39 (−0.09, 0.87) | CIBIC+ Treatment Difference (90% confidence limits) Rosi − Placebo (Alzheimer's patients [1]; Table 13A updated analysis, 1 APOE4 copy, 4 mg): 0.04 (−0.44, 0.53) | CIBIC+ Treatment Difference (90% confidence limits) Rosi − Placebo (Alzheimer's patients [1]; Table 13A updated analysis, 1 APOE4 copy, 8 mg): −0.22 (−0.74, 0.29) | CIBIC+ Treatment Difference (90% confidence limits) Rosi − Placebo (Alzheimer's patients [1]; Table 13A updated analysis, 2 APOE4 copies, 2 mg): −0.91 (−2.19, 0.36) | CIBIC+ Treatment Difference (90% confidence limits) Rosi − Placebo (Alzheimer's patients [1]; Table 13A updated analysis, 2 APOE4 copies, 4 mg): −0.45 (−1.59, 0.70) | CIBIC+ Treatment Difference (90% confidence limits) Rosi − Placebo (Alzheimer's patients [1]; Table 13A updated analysis, 2 APOE4 copies, 8 mg): −0.09 (−1.09, 0.92) | NPI scores, pattern of results (Alzheimer's patients [2]; APOE4+ subjects): demonstrated no improvement | NPI scores, pattern of results (Alzheimer's patients [2]; APOE4− subjects): demonstrated improvement on NPI | DAD scores, pattern of results (Alzheimer's patients [3]; APOE4+ subjects): demonstrated no improvement | DAD scores, pattern of results (Alzheimer's patients [3]; APOE4− subjects): demonstrated improvement on DAD
